Reference: US20160235727A1, “NOVEL PYRROLIDINE DERIVED BETA 3 ADRENERGIC RECEPTOR AGONISTS” (Merck Sharp & Dohme Corp., priority 2013, published 2016)

Target: T1, human β3-AR (Homo sapiens, UniProt P13945)
T1 construct: expressed in transfected cells; host or cells: CHO (Chinese hamster ovary) cells, stably transfected
Test: cAMP functional agonist assay (LANCE TR-FRET) in CHO cells expressing cloned human β3-AR
Type: cell-based
Details: for EC50: CHO cells stably expressing cloned human β3-adrenoceptor, cAMP release, read-out: Human β3-AR Agonism EC50; for Human β3-AR Agonist Activity (%): percent maximum activation relative to isoproterenol; for Fold drop in potency vs. 2-chloropyridine analog: EC50 of comparative example divided by EC50 of corresponding 2-chloropyridine compound

T1 sequence (P13945 whole entry): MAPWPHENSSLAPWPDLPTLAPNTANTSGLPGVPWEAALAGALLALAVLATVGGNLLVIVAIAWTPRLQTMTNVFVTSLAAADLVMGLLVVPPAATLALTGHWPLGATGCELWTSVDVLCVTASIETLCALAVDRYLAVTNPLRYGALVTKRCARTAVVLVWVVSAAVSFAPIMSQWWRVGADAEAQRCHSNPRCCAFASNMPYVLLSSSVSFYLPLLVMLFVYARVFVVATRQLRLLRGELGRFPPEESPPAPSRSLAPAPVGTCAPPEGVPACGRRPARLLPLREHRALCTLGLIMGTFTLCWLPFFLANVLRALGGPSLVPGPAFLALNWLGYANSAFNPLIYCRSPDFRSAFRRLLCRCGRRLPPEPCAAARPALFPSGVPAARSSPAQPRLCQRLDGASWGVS

| SMILES | EC50 [nM] | Human β3-AR Agonist Activity (%) | Fold drop in potency vs. 2-chloropyridine analog [fold] |
| --- | --- | --- | --- |
| Cc1cc(CN(C)C(=O)c2ccc(C[C@@H]3CC[C@H]([C@H](O)c4ccccc4)N3)cc2)n[nH]1 [Example 4-B, 4-(((2S,5R)-5-((R)-hydroxy(phenyl)methyl)pyrrolidin-2-yl)methyl)-N-methyl-N-((5-methyl-1H-pyrazol-3-yl)methyl)benzamide] | 14 | 108 | 2.6 |
| CN(Cc1cccnc1)C(=O)c1ccc(C[C@@H]2CC[C@H]([C@H](O)c3ccc(NC4CC4)nc3)N2)cc1 [Example 21-N, 4-(((2S,5R)-5-((R)-(6-(cyclopropylamino)pyridin-3-yl)(hydroxy)methyl)pyrrolidin-2-yl)methyl)-N-methyl-N-(pyridin-3-ylmethyl)benzamide] | ≥ 10000 | 27 | >2300 |
| Cc1nnc2ccc(CN(C)C(=O)c3ccc(C[C@@H]4CC[C@H]([C@H](O)c5ccc(Cl)nc5)N4)cc3)cn12 [Example 43-A, 4-(((2S,5R)-5-((R)-(6-chloropyridin-3-yl)(hydroxy)methyl)pyrrolidin-2-yl)methyl)-N-methyl-N-((3-methyl-[1,2,4]triazolo[4,3-a]pyridin-6-yl)methyl)benzamide] | > 10000 | 45 |  |
| CC(c1cnccn1)N(C)C(=O)c1ccc(C[C@@H]2CC[C@H]([C@H](O)c3ccccc3)N2)cc1 (stereo partly drawn) [Example 41-B, 4-(((2S,5R)-5-((R)-hydroxy(phenyl)methyl)pyrrolidin-2-yl)methyl)-N-methyl-N-(1-(pyrazin-2-yl)ethyl)benzamide] | 16 | 109 | 9.1 |
| Cc1cc(CN(C)C(=O)c2ccc(C[C@@H]3CC[C@H]([C@H](O)c4cncc(F)c4)N3)cc2)[nH]n1 [Example 4-R, 4-(((2S,5R)-5-((R)-(5-fluoropyridin-3-yl)(hydroxy)methyl)pyrrolidin-2-yl)methyl)-N-methyl-N-((5-methyl-1H-pyrazol-3-yl)methyl)benzamide] | 45 | 101 | 8.3 |
| COc1ccc(CN(C)C(=O)c2ccc(C[C@@H]3CC[C@H]([C@H](O)c4ccc(Cl)nc4)N3)cc2)cn1 [Example 29-A, 4-(((2S,5R)-5-((R)-(6-chloropyridin-3-yl)(hydroxy)methyl)pyrrolidin-2-yl)methyl)-N-((6-methoxypyridin-3-yl)methyl)-N-methylbenzamide] | 17 | 94 |  |
| CN(Cc1cccnc1)C(=O)c1ccc(C[C@@H]2CC[C@H]([C@H](O)c3ccc(C(N)=O)nc3)N2)cc1 [Example 21-K, 5-((R)-hydroxy((2R,5S)-5-(4-(methyl(pyridin-3-ylmethyl)carbamoyl)benzyl)pyrrolidin-2-yl)methyl)picolinamide] | 112 | 87 | 26.3 |
| CC(c1cccnc1)N(C)C(=O)c1ccc(C[C@@H]2CC[C@H]([C@H](O)c3ccccc3)N2)cc1 (stereo partly drawn) [Example 23-B, 4-(((2S,5R)-5-((R)-hydroxy(phenyl)methyl)pyrrolidin-2-yl)methyl)-N-methyl-N-(1-(pyridin-3-yl)ethyl)benzamide] | 3 | 93 | 1.5 |
| COCCN(C)C(=O)c1ccc(C[C@@H]2CC[C@H]([C@H](O)c3ccccc3)N2)cc1 [Example 1-B, 4-(((2S,5R)-5-((R)-hydroxy(phenyl)methyl)pyrrolidin-2-yl)methyl)-N-(2-methoxyethyl)-N-methylbenzamide] | 443 | 93 | 4.6 |
| CN(Cc1cc(C2CC2)[nH]n1)C(=O)c1ccc(C[C@@H]2CC[C@H]([C@H](O)c3ccc(Cl)nc3)N2)cc1 [Example 8-A, 4-(((2S,5R)-5-((R)-(6-chloropyridin-3-yl)(hydroxy)methyl)pyrrolidin-2-yl)methyl)-N-((5-cyclopropyl-1H-pyrazol-3-yl)methyl)-N-methylbenzamide] | 20 | 103 |  |
| CN(Cc1cccnc1)C(=O)c1ccc(C[C@@H]2CC[C@H]([C@H](O)c3ccc(F)cc3)N2)cc1 [Example 21-F, 4-(((2S,5R)-5-((R)-(4-fluorophenyl)(hydroxy)methyl)pyrrolidin-2-yl)methyl)-N-methyl-N-(pyridin-3-ylmethyl)benzamide] | 12 | 94 | 2.9 |
| C[C@H](c1nn(C)c(=O)o1)N(C)C(=O)c1ccc(C[C@@H]2CC[C@H]([C@H](O)c3ccccc3)N2)cc1 [Example 18-B, 4-(((2S,5R)-5-((R)-hydroxy(phenyl)methyl)pyrrolidin-2-yl)methyl)-N-methyl-N—((R)-1-(4-methyl-5-oxo-4,5-dihydro-1,3,4-oxadiazol-2-yl)ethyl)benzamide] | 68 | 105 | 8.6 |
| CN(Cc1n[nH]c2c1CCCC2)C(=O)c1ccc(C[C@@H]2CC[C@H]([C@H](O)c3cccnc3)N2)cc1 [Example 14-H, 4-(((2S,5R)-5-((R)-hydroxy(pyridin-3-yl)methyl)pyrrolidin-2-yl)methyl)-N-methyl-N-((4,5,6,7-tetrahydro-1H-indazol-3-yl)methyl)benzamide] | 55 | 101 | 19.5 |
| COc1ccc([C@@H](O)[C@H]2CC[C@@H](Cc3ccc(C(=O)N(C)Cc4cccnc4)cc3)N2)cn1 [Example 21-P, 4-(((2S,5R)-5-((R)-hydroxy(6-methoxypyridin-3-yl)methyl)pyrrolidin-2-yl)methyl)-N-methyl-N-(pyridin-3-ylmethyl)benzamide] | 24 | 93 | 5.7 |
| CN(Cc1cccc(=O)[nH]1)C(=O)c1ccc(C[C@@H]2CC[C@H]([C@H](O)c3ccc(OC(F)F)cc3)N2)cc1 [Example 20-E, 4-(((2S,5R)-5-((R)-(4-(difluoromethoxy)phenyl)(hydroxy)methyl)pyrrolidin-2-yl)methyl)-N-methyl-N-((6-oxo-1,6-dihydropyridin-2-yl)methyl)benzamide] | 86 | 72 | 18.9 |

The remaining compounds from weak to strong by EC50, led by results:

| EC50 [nM] | Human β3-AR Agonist Activity (%) | Fold drop in potency vs. 2-chloropyridine analog [fold] | SMILES |
| --- | --- | --- | --- |
| 10 | 100 | 2.3 | CN(Cc1cccnc1)C(=O)c1ccc(C[C@@H]2CC[C@H]([C@H](O)c3cccc(F)c3)N2)cc1 [Example 21-C, 4-(((2S,5R)-5-((R)-(3-fluorophenyl)(hydroxy)methyl)pyrrolidin-2-yl)methyl)-N-methyl-N-(pyridin-3-ylmethyl)benzamide] |
| 8 | 101 |  | C[C@H](c1nn(C)c(=O)o1)N(C)C(=O)c1ccc(C[C@@H]2CC[C@H]([C@H](O)c3ccc(Cl)nc3)N2)cc1 [Example 18-A, 4-(((2S,5R)-5-((R)-(6-chloropyridin-3-yl)(hydroxy)methyl)pyrrolidin-2-yl)methyl)-N-methyl-N—((R)-1-(4-methyl-5-oxo-4,5-dihydro-1,3,4-oxadiazol-2-yl)ethyl)benzamide] |
| 8 | 58 |  | CN(Cc1cncc(F)c1)C(=O)c1ccc(C[C@@H]2CC[C@H]([C@H](O)c3ccc(Cl)nc3)N2)cc1 [Example 38-A, 4-(((2S,5R)-5-((R)-(6-chloropyridin-3-yl)(hydroxy)methyl)pyrrolidin-2-yl)methyl)-N-((5-fluoropyridin-3-yl)methyl)-N-methylbenzamide] |
| 7 | 100 | 0.9 | CN(Cc1cncc(F)c1)C(=O)c1ccc(C[C@@H]2CC[C@H]([C@H](O)c3ccccc3)N2)cc1 [Example 38-B, N-((5-fluoropyridin-3-yl)methyl)-4-(((2S,5R)-5-((R)-hydroxy(phenyl)methyl)pyrrolidin-2-yl)methyl)-N-methylbenzamide] |
| 5 | 104 |  | Cc1cc(CN(C)C(=O)c2ccc(C[C@@H]3CC[C@H]([C@H](O)c4ccc(Cl)nc4)N3)cc2)n[nH]1 [Example 4-A, 4-(((2S,5R)-5-((R)-(6-chloropyridin-3-yl)(hydroxy)methyl)pyrrolidin-2-yl)methyl)-N-methyl-N-((5-methyl-1H-pyrazol-3-yl)methyl)benzamide] |
| 5 | 57 |  | O=C(c1ccc(C[C@@H]2CC[C@H]([C@H](O)c3ccc(Cl)nc3)N2)cc1)N(CCO)Cc1cccnc1F [Example 27-A, 4-(((2S,5R)-5-((R)-(6-chloropyridin-3-yl)(hydroxy)methyl)pyrrolidin-2-yl)methyl)-N-((2-fluoropyridin-3-yl)methyl)-N-(2-hydroxyethyl)benzamide] |
| 4 | 97 | 1.7 | CN(Cc1nc2ccsc2c(=O)[nH]1)C(=O)c1ccc(C[C@@H]2CC[C@H]([C@H](O)c3ccccc3)N2)cc1 [Example 44-B, 4-(((2S,5R)-5-((R)-hydroxy(phenyl)methyl)pyrrolidin-2-yl)methyl)-N-methyl-N-((4-oxo-3,4-dihydrothieno[3,2-d]pyrimidin-2-yl)methyl)benzamide] |
| 3 | 93 |  | COCc1cc(CN(C)C(=O)c2ccc(C[C@@H]3CC[C@H]([C@H](O)c4ccc(Cl)nc4)N3)cc2)n[nH]1 [Example 9-A, 4-(((2S,5R)-5-((R)-(6-chloropyridin-3-yl)(hydroxy)methyl)pyrrolidin-2-yl)methyl)-N-((5-(methoxymethyl)-1H-pyrazol-3-yl)methyl)-N-methylbenzamide] |
| 2 | 104 | 3.8 | Cc1cc(CN(C)C(=O)c2ccc(C[C@@H]3CC[C@H]([C@H](O)c4ccccc4)N3)cc2)cnc1F [Example 39-B] |
